Tests used:
[1] = test system: Lewis lung carcinoma; assay: Tumour growth and metastases of Lewis lung carcinoma in mice; format: in vivo; conditions: 5 injections
Method: Female C57B16 mice (10 mice/group, 18-22 g body weight) were i.m. injected into the left hind leg with 0.1 ml of a tumour cell suspension of Lewis lung carcinoma (day 0).
Nine groups of animals were investigated. The test compounds were s.c. administered as follows: physiological saline: once daily for eleven days starting from day 0 up to day 10. DFO: 0.5 ml in distilled water in a dose of 10 and 30 mg/kg once daily for eleven days, on day 0 up to day 10 after tumour inocculation. 10-EDAM: 0.5 ml in distilled water in a dose of 3 and 6 mg/kg, once daily on days 1, 3, 5, 7 and 9 after tumour inocculation.
Both hind legs were removed from the body, weighed, and the difference between the tumour bearing and the tumour free leg was taken as the tumour weight of one idividual mouse.
Lungs were filled up with Pelikan-ink via the trachea, fixed in Fekete-solution and metastases (white spot on black back-ground) on the lung surface were counted microscopically.

[2] = test system: HL-60 cells; assay: HL-60 colony growth with cytostatic compounds alone or with 1 µM DFO; format: cell-based, human; conditions: cytostatic alone, various concentrations
Method: HL-60 cells (10⁴/ml) were plated in 0.8 % methycellulose in RPMI-1640 medium supplemented with 20 % heat inactivated (56°C, 30 min) fetal calf serum at a final volume of 1 ml/culture plate. Cultures were set up in duplicates and maintained at 37°C in a 5 % CO₂ humidified atmosphere. Deferoxamine was dissolved in iron-free RPMI culture medium and added at the initiation of culture at different concentrations (1-10 µM). Colonies were counted at 7 days using an inverted microscope. A cluster of more than 20 cells was defined as a colony. Individual colonies were plucked from culture plates spread on glass slides and morphologically assessed after preparation with Wright's stain and non-specific esterase in the presence of fluoride (29). The self renewal capacity of cells was assessed according to McCulloch et al (30). RPMI-1640 medium was added to culture dishes for 2 hrs; the contents of each dish were then transferred into a tube, centrifuged and washed with medium three times. Cells from each dish were counted separately, and viability was assessed by trypan blue dye exclusion. Cells (1x10⁴/ml) from each dish were recultured in 0.8 % methylcellulose as before. […]
Cultures were evaluated at day 6 using an inverted microscope (100 x magnification). A cluster of more than 20 cells was determined as a colony.

[3] = test system: L-1210 tumour cells; assay: L-1210 tumour growth in mice; format: in vivo; conditions: day 8
Method: One hour prior to kill on day 8 the mice received one ip injection of 0.002 mCi of 3H-thymidine per g body weight. Cells were harvested from the peritoneal cavity, the volume of ascites measured and the cell counts determined in a coulter counter, after lysis of red cells with zap-oglobin, for calculation of total tumour cell numbers. Also, of each sample cell smears were done, Feulgen stained and autoradiographed, whereby the number and percentage of labelled cells was determined and used as a measure for proliferating cells.

[4] = test system: HL-60 cells; assay: Colony growth of HL-60 cells; format: cell-based, human; conditions: concentration of 10 µm
Method: HL-60 cells, a promyeloctic leukemia cell line originally developed by Dr. R. Gallo, NIH, were used. Cells were grown in RPMI supplemented with 10 % heat inactivated fetal calf serum (FCS, Flow Laboratories, Rockville, MO) and 2 mM glutamine (Gibco, Berkely, CA), at densities ranging from 1-2 x 10⁵/ml to 1-10⁶/ml, in a 5 % CO₂ humidified atmosphere at 37°C.
HL-60 cells (10⁴/ml) were plated in 0.8 % methycellulose in RPMI-1640 medium supplemented with 20 % heat inactivated (56°C, 30 min) fetal calf serum at a final volume of 1 ml/culture plate. Cultures were set up in duplicates and maintained at 37°C in a 5 % CO₂ humidified atmosphere. Deferoxamine was dissolved in iron-free RPMI culture medium and added at the initiation of culture at different concentrations (1-10 µM). Colonies were counted at 7 days using an inverted microscope. A cluster of more than 20 cells was defined as a colony. Individual colonies were plucked from culture plates spread on glass slides and morphologically assessed after preparation with Wright's stain and non-specific esterase in the presence of fluoride (29). The self renewal capacity of cells was assessed according to McCulloch et al (30). RPMI-1640 medium was added to culture dishes for 2 hrs; the contents of each dish were then transferred into a tube, centrifuged and washed with medium three times. Cells from each dish were counted separately, and viability was assessed by trypan blue dye exclusion. Cells (1x10⁴/ml) from each dish were recultured in 0.8 % methylcellulose as before.

[5] = DFO 400 mg/kg/d s.c. minipump from day 2, Ara-C 200 mg/kg once ip on day 6

For `CCC(Cc1cnc2nc(N)nc(N)c2n1)c1ccc(C(=O)N[C@@H](CCC(=O)O)C(=O)O)cc1` (stereo partly drawn) [10-EDAM, N-[4-[1-(2,4-Diamino-6-pteridinyl)but-2-yl]-benzoyl]-L-glutamic acid], which “Number of lung metastases % of control” value ([1]; group 4: 10-EDAM 3 mg/kg s.c.) is on record?
Its value is 66%.

What about the “Number of lung metastases x̄ ± SD” value ([1]; group 4: 10-EDAM 3 mg/kg s.c.) of the same molecule?
The value was 44 ± 18.

What about the “Tumour weight % of control” value ([1]; group 4: 10-EDAM 3 mg/kg s.c.) of the same molecule?
Its value is 91%.

What about the “Tumour weight x̄ ± SD” value ([1]; group 4: 10-EDAM 3 mg/kg s.c.) of the same molecule?
Its value is 6.87 ± 0.47 g.

And the “Number of lung metastases % of control” value ([1]; group 5: 10-EDAM 6 mg/kg s.c.)?
Its value is 34%.

And the “Number of lung metastases x̄ ± SD” value ([1]; group 5: 10-EDAM 6 mg/kg s.c.)?
The value was 23 ± 10.

What about the “Tumour weight % of control” value ([1]; group 5: 10-EDAM 6 mg/kg s.c.) of the same molecule?
The value was 89%.

What about the “Tumour weight x̄ ± SD” value ([1]; group 5: 10-EDAM 6 mg/kg s.c.) of the same molecule?
Its value is 6.70 ± 1.06 g.

Which HL-60 colony growth [2] does the source give for `CN(Cc1cnc2nc(N)nc(N)c2n1)c1ccc(C(=O)N[C@@H](CCC(=O)O)C(=O)O)cc1` [methotrexate, L-(+)-N-[4-N-(2,4-diamino-6-pteridinyl)-methyl-N-methyl-amino]-benzoyl-L-glutamic acid] here?
Its HL-60 colony growth is “dose-dependent growth inhibitory effect”.

Which results are given for `Nc1ccn([C@@H]2O[C@H](CO)[C@@H](O)[C@@H]2O)c(=O)n1` [Ara-C, 1-β-D-arabinofuranosyl-cytosine]?
HL-60 colony growth [2]: inhibited colony growth in a dose-dependent manner; proportions of proliferating cells ([3]; 3H-thymidine labelled cells, same doses as Table 12): 26 % ± 6%; Number of cells in the peritoneal cavity % of control [3, 5]: 30%; Number of cells in the peritoneal cavity x̄ ± SD [3, 5]: 1.11 ± 0.40 * 10^8; Number of proliferating cells in peritoneal cavity % of control [3, 5]: 24%; Number of proliferating cells in peritoneal cavity x̄ ± SD [3, 5]: 0.29 ± 0.10 * 10^8

`CC(=O)N([O-])CCCCCNC(=O)CCC(=O)N([O-])CCCCCNC(=O)CCC(=O)N([O-])CCCCCN.[Fe+3]` [Ferrioxamine] was tested. Which colony formation [4] did it give?
Its colony formation is “did not affect colony formation”.

Source: patent publication EP0227593A1, “Use of chelating agents” (THE HOSPITAL FOR SICK CHILDREN, priority 1985, dated 1987)
